Where “and” joins values, the source holds several entries; their conditions need not be identical. Equal values may be shown once.
What was measured:
[1] = target: T1, FLT3 (Homo sapiens, UniProt P36888); test: In vitro kinase assay, FLT3 (Reaction Biology Corporation); assay type: biochemical; settings: determined by Reaction Biology Corporation; read-out: IC50 FLT3
T1 construct: Reaction Biology Corporation (contract assay)
T1 sequence (P36888 27-993): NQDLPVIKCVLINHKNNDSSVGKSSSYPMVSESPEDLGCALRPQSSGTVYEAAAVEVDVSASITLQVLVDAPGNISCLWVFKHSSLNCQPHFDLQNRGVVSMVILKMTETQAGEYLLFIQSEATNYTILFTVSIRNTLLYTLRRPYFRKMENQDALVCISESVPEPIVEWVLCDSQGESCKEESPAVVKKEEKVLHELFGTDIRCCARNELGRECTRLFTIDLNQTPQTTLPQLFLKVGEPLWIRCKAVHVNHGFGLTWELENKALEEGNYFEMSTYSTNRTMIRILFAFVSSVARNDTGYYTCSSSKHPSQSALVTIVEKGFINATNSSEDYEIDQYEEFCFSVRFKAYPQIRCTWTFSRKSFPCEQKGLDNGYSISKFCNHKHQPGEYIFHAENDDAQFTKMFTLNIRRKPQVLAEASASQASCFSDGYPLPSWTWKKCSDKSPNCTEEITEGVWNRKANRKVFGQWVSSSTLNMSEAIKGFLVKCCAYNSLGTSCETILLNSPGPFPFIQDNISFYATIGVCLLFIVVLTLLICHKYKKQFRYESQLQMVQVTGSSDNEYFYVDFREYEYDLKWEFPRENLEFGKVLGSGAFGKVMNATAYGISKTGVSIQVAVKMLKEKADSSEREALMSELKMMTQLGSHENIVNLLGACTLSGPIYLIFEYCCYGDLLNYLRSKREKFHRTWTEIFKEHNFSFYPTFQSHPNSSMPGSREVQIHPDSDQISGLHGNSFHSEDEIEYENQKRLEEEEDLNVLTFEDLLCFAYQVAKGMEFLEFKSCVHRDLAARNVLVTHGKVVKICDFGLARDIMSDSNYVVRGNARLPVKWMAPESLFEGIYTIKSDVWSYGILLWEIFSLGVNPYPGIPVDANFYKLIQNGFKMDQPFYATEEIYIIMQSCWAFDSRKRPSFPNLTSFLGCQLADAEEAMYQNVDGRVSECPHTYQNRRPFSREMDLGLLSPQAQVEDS
Protocol: (§1) Compounds were tested in 10-dose IC50 mode with 3-fold serial dilution starting at 50 μM. […] Reactions were carried out at 10 μM ATP. Average and standard deviations of reactions carried out in triplicate are shown.
(§2) In vitro kinase assay to detect CK1 or FLT3 activity: CK1 and FLT3 assays as well as complete kinase profile of 296 kinases was performed by Reaction Biology Corporation. For FLT3 20 μM final Abltide was used, sequence: [[…]]. For CK1 (all isoforms) 20 μM CK1 tide was used, sequence: [KRRRAL[pS]VASLPGL] in a standard kinase assay with ^32P-ATP and purified kinase. Incorporation of ^32P-ATP into the peptide was measured after a filter-binding assay. In-house CK1d inhibition assays were performed using a standard homogenous time-resolved fluorescence resonance energy transfer (TR-FRET) format in 50 mM Hepes, pH 7.0, 2.5 mM MgCl2, 0.1 mg/ml bovine serum albumin, 1 mM DL-dithiothreitol, 0.01% Triton X-100 (all from Sigma-Aldrich). Briefly, the CK1δ substrate (DEKTDDE, containing CK1 consensus sequence; 4 μL of a 500 nM stock solution) is labeled with a small Ulight acceptor dye (PerkinElmer). In the presence of 10 μL of 10 nM CK1δ, the Ulight peptide is phosphorylated at a single amino acid that is specifically recognized by a europium chelate (Eu)-labeled phosphospecific antibody. Assays were performed in the presence of 2 μL of compound at different (measured) concentrations, and reactions were stopped by adding 10 μL of 4 nM Eu-anti-p-Topo-IIa (PerkinElmer) in Lance Detection Buffer (Perkin Elmer). Upon excitation of the Eu-labeled antibody, energy is transferred to the acceptor dye resulting in the emission of detected light at 665 nm.

[2] = target: CK1δ (Homo sapiens, UniProt P48730); test: In vitro kinase assay, CK1d, 32P-ATP filter binding (Reaction Biology Corporation); assay type: biochemical; settings: footnote a: determined by Reaction Biology Corporation; read-out: IC50 CK1d
Protocol: as §1, §2

[3] = system: A498 (renal); test: NCI Dose Growth Inhibition assay (NCI-60); assay type: cell-based; settings: Homo sapiens; A498 (renal); read-out: GI50
Protocol: (§3) Table 3, below, illustrates the activity of some of the compounds of the present invention in the National Cancer Institute's Dose Growth Inhibition assay against several human tumor cell lines selected from the NCI-60 panel.
(§4) NCI-60 Cancer Cell Line Screening was performed by the National Cancer Institute, using the procedures described on their website (http://dtp.nci.nih.gov/branches/btb/ivelsp.html)

[4] = system: COLO 205 (colon); test: NCI Dose Growth Inhibition assay (NCI-60); assay type: cell-based; settings: Homo sapiens; COLO 205 (colon); read-out: GI50
Protocol: as §3, §4

[5] = system: MDA-MB-468 (breast); test: NCI Dose Growth Inhibition assay (NCI-60); assay type: cell-based; settings: Homo sapiens; MDA-MB-468 (breast); read-out: GI50
Protocol: as §3, §4

[6] = system: RXF393 (renal); test: NCI Dose Growth Inhibition assay (NCI-60); assay type: cell-based; settings: Homo sapiens, RXF 393; RXF393 (renal); read-out: GI50
Protocol: as §3, §4

[7] = system: SNB-75 (CNS); test: NCI Dose Growth Inhibition assay (NCI-60); assay type: cell-based; settings: Homo sapiens; SNB-75 (CNS); read-out: GI50
Protocol: as §3, §4

[8] = system: UACC-62 (melanoma); test: NCI Dose Growth Inhibition assay (NCI-60); assay type: cell-based; settings: Homo sapiens; UACC-62 (melanoma); read-out: GI50
Protocol: as §3, §4

[9] = system: K328M-Wee1-luciferase; test: Wee1-luciferase assay (stabilization of K328M-Wee1-luciferase); assay type: cell-based; settings: for % Inhibition, Wee1 Degradation: at 250 nM, reported relative to SR-1277 = 100%; for EC50: read-out: Wee1 Stabilization
Description: Steady-state level of K328M-Wee1-Luciferase (K328M-Wee1-Luc) was divided by Luciferase level (Luc) and plotted.
(§5) Similar assays have previously been described; PubChem AID 1807.

[10] = system: cerebellar granule cell progenitors (GCPs); test: In vitro proliferation of cerebellar granule cell progenitors (3H-thymidine uptake); assay type: cell-based, mouse; settings: 24 hours; result in words
Protocol: GCPs were incubated with DMSO, 5 μM D4476 (known CK1δ and CK1ε inhibitor), or 50 μM D4476 and processed for ^3H-thymidine incorporation after 24 hours. A representative experiment performed in triplicate is shown.

[11] = system: Luciferase; test: Luciferase alone control (PGL3 vector); assay type: cell-based; settings: HeLa cells; result in words
Protocol: The percentage of signal relative to the proteasome inhibitor MG132 is shown. […] A Western blot is shown of endogenous Wee1 or Skp1 (loading control) of HeLa cells incubated with 5 μM of indicated compounds for 24 hours. […] The 0 time point was set to 100%. […] The extent of degradation was measured as in FIG. D.
5 μM of indicated compounds were incubated with K328M-Wee1-Luciferase or Luciferase expressing HeLa cells and the extent of stabilization measured after adding Brite-lite. MG132 was used as a positive control.
as §5

CK1δ, sequence (P48730 whole entry): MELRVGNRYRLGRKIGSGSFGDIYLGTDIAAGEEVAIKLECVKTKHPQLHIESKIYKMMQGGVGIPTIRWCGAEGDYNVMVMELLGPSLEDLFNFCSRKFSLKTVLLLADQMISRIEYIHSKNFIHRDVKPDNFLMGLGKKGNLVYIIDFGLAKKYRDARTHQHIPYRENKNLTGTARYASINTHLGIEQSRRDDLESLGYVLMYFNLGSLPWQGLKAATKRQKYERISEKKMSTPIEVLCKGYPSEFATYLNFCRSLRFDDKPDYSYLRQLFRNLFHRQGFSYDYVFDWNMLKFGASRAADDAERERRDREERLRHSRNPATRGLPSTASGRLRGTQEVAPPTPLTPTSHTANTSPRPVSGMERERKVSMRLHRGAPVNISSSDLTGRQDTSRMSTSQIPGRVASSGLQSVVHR

SMILES | IC50 [1] | IC50 [2] | % Inhibition, Wee1 Degradation [9] | other results
Fc1cccc(-n2cnc3c(NCc4nc5cc(Cl)ccc5[nH]4)nc(N4CCNCC4)nc32)c1 [SR-2890] | 809 nM | 4 nM |  | GI50 [3]: 207 nM; GI50 [4]: 29 nM; GI50 [5]: 12 nM; GI50 [6]: 41 nM; GI50 [7]: 46 nM; GI50 [8]: 182 nM
CCOC(=O)c1cccc2[nH]c(CNc3nc(N4CCOCC4)nc4c3ncn4-c3ccsc3)nc12 [SR-1282] | 548 nM | 361 nM | 97.3% | EC50 [9]: 207 nM
CC(C)n1cnc2c(NCc3nc4c([N+](=O)[O-])cccc4[nH]3)nc(N3CCOCC3)nc21 [SR-1284] | 28000 nM | 815 nM | 111.2% | EC50 [9]: 201 nM
O=[N+]([O-])c1ccc2[nH]c(CNc3nc(N4CCOCC4)nc4c3ncn4-c3ccsc3)nc2c1 [SR-1278] | 240 nM | 21 nM | 18.7% | 
COc1ccc2[nH]c(CNc3nc(N4CCNCC4)nc4c3ncn4-c3ccoc3)nc2c1 [SR-2891] | 782 nM | 11 nM |  | GI50 [3]: 321 nM; GI50 [4]: 30 nM; GI50 [5]: < 10 nM; GI50 [6]: 49 nM; GI50 [7]: 24 nM; GI50 [8]: 174 nM
FC(F)(F)c1cc(Br)c2nc(CNc3nc(N4CCOCC4)nc4c3ncn4-c3ccsc3)[nH]c2c1 [SR-1285] | 4740 nM | 522 nM | 13.4% | 
O=[N+]([O-])c1cccc2[nH]c(CNc3nc(N4CCOCC4)nc4c3ncn4-c3ccoc3)nc12 [SR-2007] | 345 nM | 18 nM and 19 nM | 81.1% | 
Clc1ccc2[nH]c(CNc3nc(N4CCOCC4)nc4c3ncn4-c3ccsc3)nc2c1 [SR-1274] | 301 nM | 105 nM | 101.2% | EC50 [9]: 164 nM
c1ccc2cc3[nH]c(CNc4nc(N5CCOCC5)nc5c4ncn5-c4ccsc4)nc3cc2c1 [SR-1280] | 975 nM | 129 nM | 48.3% | 
c1ccc2[nH]c(CNc3nc(N4CCOCC4)nc4c3ncn4C3CCCC3)nc2c1 [SR-2149] | 401 nM | 46 nM | 6.1% | 
COc1ccc2[nH]c(CNc3nc(N4CCN(C)CC4)nc4c3ncn4-c3ccoc3)nc2c1 [SR-2848] | 298 nM | 29 nM |  | 
FC(F)(F)c1ccc2[nH]c(CNc3nc(N4CCOCC4)nc4c3ncn4-c3ccsc3)nc2c1 [SR-1273] | 509 nM | 13 nM | 46.3% | 
FC(F)(F)c1cccc2[nH]c(CNc3nc(N4CCOCC4)nc4c3ncn4-c3ccsc3)nc12 [SR-1272] | 262 nM | 128 nM | 10.8% | 
NC(=O)c1ccc(-c2nc(-c3ccc4c(c3)OCCO4)c(-c3ccccn3)[nH]2)cc1 [Compound D4476, reference compound] |  |  |  | stabilization of K328M-Wee1-luciferase ([9]; HeLa cells, result in words): stabilizes K328M-Wee1-luciferase; inhibition of GCP proliferation (3H-thymidine) [10]: inhibited GCP proliferation; Luciferase levels [11]: does not affect Luciferase levels

Second part, led by results:

IC50 [1] | IC50 [2] | SMILES | % Inhibition, Wee1 Degradation [9] | other results
125 nM | 22 nM | Cn1c(CNc2nc(N3CCOCC3)nc3c2ncn3-c2ccsc2)nc2ccccc21 [SR-2001] | 1.7% | 
182 nM | 11 nM | CN1CCN(c2nc(NCc3nc4cc(Cl)ccc4[nH]3)c3ncn(-c4ccoc4)c3n2)CC1 [SR-2849] |  | GI50 [3]: 113 nM; GI50 [4]: 25 nM; GI50 [5]: < 10 nM; GI50 [6]: 17 nM; GI50 [7]: 19 nM; GI50 [8]: 130 nM
16 nM | 3 nM | c1ccc2[nH]c(CNc3nc(N4CCNCC4)nc4c3ncn4-c3ccsc3)nc2c1 [SR-1292] | 14.5% | 
62 nM | 11 nM | N#Cc1ccc2[nH]c(CNc3nc(N4CCOCC4)nc4c3ncn4-c3ccsc3)nc2c1 [SR-1276] | 85.9% | 
68 nM | 11 nM | CN1CCN(c2nc(NCc3nc4ccccc4[nH]3)c3ncn(-c4ccsc4)c3n2)CC1 [SR-1294] | 14.1% | 
216 nM | 20 nM | CN1CCN(c2nc(NCc3nc4cc(F)ccc4[nH]3)c3ncn(-c4ccoc4)c3n2)CC1 [SR-2866] |  | 
69 nM | 10 nM | CS(=O)(=O)c1ccc2[nH]c(CNc3nc(N4CCOCC4)nc4c3ncn4-c3ccsc3)nc2c1 [SR-2797] |  | 
57 nM | 16 nM | CS(=O)(=O)c1cccc2[nH]c(CNc3nc(N4CCOCC4)nc4c3ncn4-c3ccsc3)nc12 [SR-2805] |  | 
79 nM | 50 nM | Fc1ccc2[nH]c(CNc3nc(N4CCOCC4)nc4c3ncn4-c3ccsc3)nc2c1 [SR-1275] | 81.4% | 
14 nM | 17 nM | COc1ccc2[nH]c(CNc3nc(N4CCOCC4)nc4c3ncn4-c3ccsc3)nc2c1 [SR-1279] | 79.5% | 
82 nM | 5 nM | Clc1ccc2[nH]c(CNc3nc(N4CCNCC4)nc4c3ncn4-c3ccoc3)nc2c1 [SR-2889] |  | GI50 [3]: 24 nM; GI50 [4]: < 10 nM; GI50 [5]: < 10 nM; GI50 [6]: < 10 nM; GI50 [7]: < 10 nM; GI50 [8]: 17 nM
129 nM | 23 nM | Clc1ccc2[nH]c(CNc3nc(N4CCOCC4)nc4c3ncn4-c3ccoc3)nc2c1 [SR-2850] |  | 
